{
  "source": "patent US20240002429A1",
  "about": "“PRODRUG OF 5a-HYDROXY-6ß-[2-(1H-IMIDAZOL-4-YL)ETHYLAMINO]CHOLESTAN-3ß-OL AND PHARMACEUTICAL COMPOSITIONS COMPRISING SAME FOR USE IN THE TREATMENT OF CANCER” (priority 2020, published 2024)",
  "key": {"[1]": {"tested_on": "BT-474 human mammary tumor cells", "assay": "Cytotoxicity on BT-474 cells, LDH", "format": "cell-based", "settings": "BT-474, LDH, 48 h; for Mean LogIC50 (±SEM): log of IC50 in μM; for IC50: Homo sapiens, read-out: IC50", "experimental": "For the second method, the percentage viability is determined using assay of the activity of the enzyme LDH (lactate dehydrogenase) in the cellular supernatants using the kit non radioactive cytotoxicity assay kit (Promega). LDH is an enzyme released in the supernatant of dead cells. The higher the LDH activity in the supernatant, the greater is the cell death. In this enzyme test, the LDH released converts a violet tetrazolium salt to formazan, of red color, absorbing at 490 nm. The intensity of the red color is proportional to the number of dead cells. After 48 h of treatment, the supernatants are transferred to a new 96-well plate and are incubated for 30 minutes in the presence of the substrate mix at room temperature. The reaction is stopped using the stop buffer and the absorbance is determined at 490 nm. The percentage cell death is determined here using a control 100% of maximum activity of LDH (carried out with untreated cells incubated in the presence of the lysis solution for 45 minutes at 37° C. just before adding the substrate mix), and the cellular viability in each well is then deduced from this percentage. IC50 is then determined as explained in the preceding paragraph.\nThe cellular viability tests were also carried out on BT-474 human mammary tumor cells (characterized as being positive triples HER2+, ER+, PR+). The BT-474 cells are in a cell culture medium identical to the preceding example and are seeded in 24-well plates at 70 000 cells per well, for determination of cellular viability using trypan blue, or in 96-well plates at 13 000 cells per well for determination of cellular viability using the MTT or LDH assay. After 96 hours (h) of culture in normal conditions, i.e. in an incubator at a temperature of 37° C. at 5% CO2, the BT-474 cells are treated for 48 h with DX101, DX107, and DX113 at 100 nM, 1 μM, 2.5 μM and 10 μM. A control is also carried out using the protocol described above but without treatment with the molecules DX101, DX107, DX113, DX117, DX119, DX121 or DX131.\nAfter trypsin digestion for 10 minutes at 37° C., cell survival was quantified, also by a trypan blue assay with automatic counting with the Biorad TC20 equipment (TC20™ Automated Cell Counter). The trypan blue assay is based on the cell membrane integrity, which is broken in the dead cells. Trypan blue stains the dead cells blue. The Biorad TC20 cell counter counts the proportion of blue cells and non-blue cells, relative to the cell percentages. The percentage viability is then determined in each well relative to the untreated cells and the IC50 is determined as explained in the preceding example. The percentage viability of the BT-474 cells was determined using the MTT and LDH assay, carried out as described in the preceding example."}, "4T1 tumors": {"tested_on": "4T1 tumors", "assay": "Effect on 4T1 tumor growth and survival in vivo", "settings": "4T1 tumors in Balb/c mice, 40 mg/kg by stomach tube every day; for Median survival: Kaplan-Meier; for Inhibition of tumor growth: day 8 vs day 0", "experimental": "All the procedures on the animals were carried out in accordance with the guidelines of our institution after being approved by the ethics committee. The 4T1 cells were cultured as before, and were dissociated in trypsin and washed twice in cold PBS and resuspended in PBS at 1.5 million/mL. The 4T1 tumors were obtained by subcutaneous transplantation of 0.150 million cells in 100 μL in the flank of female Balb/c mice (9 weeks, January). When the tumors reached a volume of 50-100 mm^3, the mice were fed by stomach tube with 40 mg/kg of DX101 or 40 mg/kg of […] or the control vehicle (water). The treatment was carried out every day until the end of the experiment (tumor volume >1000 mm^3). The tumor volume was determined every day using a caliper gauge and calculated from the formula: ½×(Length*Width^2). The percentage inhibition of tumor growth was determined from the following formula: 100×(1−(tumor volume, day 8/tumor volume day 0)DX107)/(1−(tumor volume, day 8/tumor volume day 0)vehicle).\nThe Kaplan-Meier method was used for comparing the animals' survival."}, "4T1 cells": {"tested_on": "4T1 cells", "assay": "Cytotoxicity on 4T1 cells, CellTox Green Cytotoxicity Assay", "format": "cell-based, murine", "settings": "Mus musculus, 4T1, Green Cytotoxicity Assay, 48 h", "experimental": "The cellular viability tests were carried out on murine mammary tumor 4T1 cells characterized as negative triples (HER2−, ER−, PR−).\nFor this experiment, a cell culture medium was prepared. The culture medium consists of Dulbecco's Modified Eagle Medium (DMEM, marketed by Westburg under the reference LO BE12-604F), comprising 4.5 g/L glucose with L-glutamine, to which 10% of fetal calf serum (FCS) and 50 U/mL of penicillin/streptomycin are added. The 4T1 cells are introduced into this culture medium.\n96-well plates were seeded with 2000 4T1 cells per well. After 72 hours (h) of culture in normal conditions, i.e. in an incubator at a temperature of 37° C. at 5% CO2, the 4T1 cells are treated for 48 h with DX101, DX107, DX113, DX117, DX119, DX121 or DX131 at 100 nM, 1 μM, 2.5 μM and 10 μM. A control condition (CTL) is also carried out in parallel using the protocol described above but without treatment with the molecules DX101, DX107, DX113, DX117, DX119, DX121, DX131 or DX133.\nFor the third method, the percentage viability is determined using the kit CellTox Green Cytotoxicity Assay (Promega). This assay measures cell death via a change in membrane integrity. […] As a result, the higher the fluorescence in the wells, the greater is the cell death. After 48 h of treatment, the cells are incubated for a minimum of 15 minutes in the presence of the Celltox green reagent at room temperature and the fluorescence is read at […]. The percentage cell death is determined using the control 100% of cell death (carried out for untreated cells incubated in the presence of the lysis solution for 30 minutes at 37° C. before adding the Celltox green reagent), and the cellular viability in each well is then deduced from this percentage. IC50 is then determined as explained above."}, "[2]": {"settings": "log of IC50 in μM, read-out: Mean LogIC50 (±SEM) (converted)"}},
  "note": "Where two headings read alike, the source gives them in different places.",
  "data": [
    {"smiles": "CC(C)CCC[C@@H](C)[C@H]1CC[C@H]2[C@@H]3C[C@@H](NCCc4c[nH]cn4)[C@@]4(O)C[C@@H](O)CC[C@]4(C)[C@H]3CC[C@]12C", "note": "[DX101, 5α-hydroxy-6β-[2-(1H-imidazol-4-yl)-ethylamino]-cholestan-3β-ol, reference compound]", "values": [
      {"measurement": "Mean LogIC50 (±SEM)", "setting": "[1]", "value": "0.99 ± 0.06"},
      {"measurement": "IC50", "setting": "[1]", "value": 9.72, "unit": "µM"},
      {"measurement": "Median survival", "setting": "4T1 tumors", "value": 9, "unit": "days"},
      {"measurement": "Inhibition of tumor growth", "setting": "4T1 tumors", "value": 58, "unit": "%"},
      {"measurement": "IC50", "setting": "4T1 cells; [2]", "value": 3.55, "unit": "µM"},
      {"measurement": "IC50", "setting": "4T1 cells; read-out: IC50", "value": 3.55, "unit": "µM"}
    ]},
    {"smiles": "CCC(=O)O[C@H]1CC[C@]2(C)[C@H]3CC[C@]4(C)[C@@H]([C@H](C)CCCC(C)C)CC[C@H]4[C@@H]3C[C@@H](NCCc3c[nH]cn3)[C@@]2(O)C1", "note": "[DX107, 5α-hydroxy-6β-[2-(1H-imidazol-4-yl)ethylamino]cholestan-3β-yl propionate]", "values": [
      {"measurement": "Mean LogIC50 (±SEM)", "setting": "[1]", "value": "0.95 ± 0.08"},
      {"measurement": "IC50", "setting": "[1]", "value": 8.92, "unit": "µM"},
      {"measurement": "Median survival", "setting": "4T1 tumors", "value": 14, "unit": "days"},
      {"measurement": "Inhibition of tumor growth", "setting": "4T1 tumors", "value": 78, "unit": "%"},
      {"measurement": "IC50", "setting": "4T1 cells; [2]", "value": 2.34, "unit": "µM"},
      {"measurement": "IC50", "setting": "4T1 cells; read-out: IC50", "value": 2.33, "unit": "µM"}
    ]}
  ]
}
